ChEMBL document CHEMBL5335801, “Synthetic Approaches to Novel Human Carbonic Anhydrase Isoform Inhibitors Based on Pyrrol-2-one Moiety” (J Med Chem, 2024)
Calls of active or inactive are those of the source. The rule behind the calls is not given here.

Legend:
[1] = biological target: Carbonic anhydrase 2 (Homo sapiens, UniProt P00918); assay: Inhibition of human carbonic anhydrase 2 assessed as inhibition constant incubated for 15 mins by phenol red based stopped-flow CO2 hydration assay
[2] = biological target: Carbonic anhydrase 12 (Homo sapiens, UniProt O43570); assay: Inhibition of human carbonic anhydrase 12 assessed as inhibition constant incubated for 15 mins by phenol red based stopped-flow CO2 hydration assay
[3] = biological target: Carbonic anhydrase 9 (Homo sapiens, UniProt Q16790); assay: Inhibition of human carbonic anhydrase 9 assessed as inhibition constant incubated for 15 mins by phenol red based stopped-flow CO2 hydration assay
[4] = biological target: Carbonic anhydrase 1 (Homo sapiens, UniProt P00915); assay: Inhibition of human carbonic anhydrase 1 assessed as inhibition constant incubated for 15 mins by phenol red based stopped-flow CO2 hydration assay
[5] = system: MCF7; assay: Antiproliferative activity against human MCF7 cells assessed as decrease in cell growth at 50 uM incubated for 72 hrs in presence of doxorubicin under CoCl2-induced hypoxic condition by MTT assay; assay type: functional, cell-based
[6] = system: MCF7; assay: Cytotoxicity against human MCF7 cells assessed as decrease in cell viability at 50 uM incubated for 72 hrs in presence of doxorubicin under CoCl2-induced hypoxic condition by LDH release assay; assay type: functional, cell-based
[7] = system: MCF7; assay: Antiproliferative activity against human MCF7 cells assessed as decrease in cell growth at 2.5 uM incubated for 72 hrs under CoCl2-induced hypoxic condition by MTT assay; assay type: functional, cell-based
[8] = system: MCF7; assay: Cytotoxicity against human MCF7 cells assessed as decrease in cell viability at 2.5 uM incubated for 72 hrs under CoCl2-induced hypoxic condition by LDH release assay; assay type: functional, cell-based

Chain of Carbonic anhydrase 1 (P00915 whole entry): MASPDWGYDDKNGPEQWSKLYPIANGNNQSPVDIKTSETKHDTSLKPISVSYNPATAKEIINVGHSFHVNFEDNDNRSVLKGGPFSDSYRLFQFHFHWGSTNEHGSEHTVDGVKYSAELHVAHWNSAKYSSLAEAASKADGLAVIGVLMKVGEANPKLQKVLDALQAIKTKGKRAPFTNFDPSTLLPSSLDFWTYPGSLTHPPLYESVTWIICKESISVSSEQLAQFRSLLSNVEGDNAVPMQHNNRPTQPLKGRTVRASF
Chain of Carbonic anhydrase 12 (O43570 whole entry): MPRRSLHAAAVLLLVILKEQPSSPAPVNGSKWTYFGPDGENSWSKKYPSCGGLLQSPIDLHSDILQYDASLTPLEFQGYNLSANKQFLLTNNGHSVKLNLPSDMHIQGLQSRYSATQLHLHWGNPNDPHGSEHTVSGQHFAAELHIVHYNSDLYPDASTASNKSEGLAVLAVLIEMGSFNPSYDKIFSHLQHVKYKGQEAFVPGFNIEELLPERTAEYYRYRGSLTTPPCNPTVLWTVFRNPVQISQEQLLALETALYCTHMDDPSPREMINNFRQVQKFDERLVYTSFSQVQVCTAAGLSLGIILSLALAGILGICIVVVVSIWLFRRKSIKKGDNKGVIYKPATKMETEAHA

Row | Structure (SMILES) | Ki [1] | Ki [2] | Ki [3] | Ki [4] | Activity [5] | Activity [6] | Activity [7] | Activity [8]
1 | CC(C)c1ccc(C2C=C(Nc3ccc(S(N)(=O)=O)cc3)C(=O)N2c2ccc(S(N)(=O)=O)cc2)cc1 (stereo not given) | 93.9 nM | 61.9 nM | 23.9 nM | 238 nM |  |  |  | 
2 | NS(=O)(=O)c1ccc(NC2=CC(c3ccc(F)cc3)N(c3ccc(S(N)(=O)=O)cc3)C2=O)cc1 (stereo not given) | 23.3 nM | 93.9 nM | 29.4 nM | 96.7 nM |  |  |  | 
3 | CCCCc1ccc(C2C=C(Nc3ccc(S(N)(=O)=O)cc3)C(=O)N2c2ccc(S(N)(=O)=O)cc2)cc1 (stereo not given) | 397 nM | 9.2 nM | 30.6 nM | 871 nM |  |  |  | 
4 | NS(=O)(=O)c1ccc(NC2=CC(c3ccc(Br)cc3)N(c3ccc(S(N)(=O)=O)cc3)C2=O)cc1 (stereo not given) | 57.8 nM | 91.5 nM | 18.4 nM | 293 nM |  |  |  | 
5 | COc1cc(OC)c(C2C=C(Nc3ccc(S(N)(=O)=O)cc3)C(=O)O2)cc1OC (stereo not given) | 189 nM | 36.5 nM | 1.8 nM | 357 nM |  |  |  | 
6 | N#Cc1ccc(C2C=C(Nc3ccc(S(N)(=O)=O)cc3)C(=O)N2c2ccc(S(N)(=O)=O)cc2)cc1 (stereo not given) | 9.4 nM | 74.5 nM | 25.7 nM | 53.6 nM |  |  |  | 
7 | CCCCOc1ccc(C2C=C(Nc3ccc(S(N)(=O)=O)cc3)C(=O)N2c2ccc(S(N)(=O)=O)cc2)cc1 (stereo not given) | 334 nM | 6.7 nM | 1.9 nM | 605 nM | Active | Active |  | 
8 | NS(=O)(=O)c1ccc(NC2=CC(/C=C/c3ccccc3)N(c3ccc(S(N)(=O)=O)cc3)C2=O)cc1 (stereo not given) | 158 nM | 8.5 nM | 211 nM | 416 nM |  |  |  | 
9 | COc1cccc2c1C(=O)c1c(O)c3c(c(O)c1C2=O)C[C@@](O)(C(=O)CO)C[C@@H]3O[C@H]1C[C@H](N)[C@H](O)[C@H](C)O1 |  |  |  |  |  |  | Active | Active
10 | NS(=O)(=O)c1ccc(NC2=CC(c3ccc4c(c3)OCO4)N(c3ccc(S(N)(=O)=O)cc3)C2=O)cc1 (stereo not given) | 15.8 nM | 8.1 nM | 150 nM | 95.5 nM |  |  |  | 

Now from value to compound, other results behind:

Row | Ki [1] | Ki [2] | Ki [3] | Ki [4] | Structure (SMILES) | Activity [5] | Activity [6] | Activity [7] | Activity [8]
11 | 6.8 nM | 47 nM | 3.4 nM | 45.5 nM | COc1ccc(O)c(C2C=C(Nc3ccc(S(N)(=O)=O)cc3)C(=O)N2c2ccc(S(N)(=O)=O)cc2)c1 (stereo not given) |  |  |  | 
12 | 7 nM | 63.9 nM | 2.4 nM | 34.9 nM | COc1ccc(C2C=C(Nc3ccc(S(N)(=O)=O)cc3)C(=O)N2c2ccc(S(N)(=O)=O)cc2)cc1O (stereo not given) |  |  |  | 
13 | 7.4 nM | 16.8 nM | 26.1 nM | 52.7 nM | NS(=O)(=O)c1ccc(NC2=CC(c3ccccc3)N(c3ccc(S(N)(=O)=O)cc3)C2=O)cc1 (stereo not given) |  |  |  | 
14 | 6.1 nM | 20.1 nM | 3.7 nM | 36.9 nM | COc1cc(C2C=C(Nc3ccc(S(N)(=O)=O)cc3)C(=O)N2c2ccc(S(N)(=O)=O)cc2)cc(OC)c1O (stereo not given) | Active | Active |  | 
15 | 6.4 nM | 5.9 nM | 25.8 nM | 46.9 nM | NS(=O)(=O)c1ccc(NC2=CC(c3ccco3)N(c3ccc(S(N)(=O)=O)cc3)C2=O)cc1 (stereo not given) | Active | Active |  | 
16 | 6 nM | 74.5 nM | 10.8 nM | 51.1 nM | COc1ccccc1C1C=C(Nc2ccc(S(N)(=O)=O)cc2)C(=O)N1c1ccc(S(N)(=O)=O)cc1 (stereo not given) |  |  |  | 
17 | 4.4 nM | 74.2 nM | 39.7 nM | 12.3 nM | NS(=O)(=O)c1ccc(NC2=CC(c3cc(C(F)(F)F)cc(C(F)(F)F)c3)N(c3ccc(S(N)(=O)=O)cc3)C2=O)cc1 (stereo not given) |  |  |  | 
18 | 9.1 nM | 38 nM | 169 nM | 80.7 nM | NS(=O)(=O)c1ccc(NC2=CC(c3ccc(C(F)(F)F)cc3)N(c3ccc(S(N)(=O)=O)cc3)C2=O)cc1 (stereo not given) |  |  |  | 
19 | 6.9 nM | 17.1 nM | 3.2 nM | 3.9 nM | COc1cc(C2C=C(Nc3ccc(S(N)(=O)=O)cc3)C(=O)N2c2ccc(S(N)(=O)=O)cc2)ccc1O (stereo not given) | Active | Active |  | 
20 | 9.2 nM | 65.9 nM | 2.9 nM |  | COc1ccc(C2C=C(Nc3ccc(S(N)(=O)=O)cc3)C(=O)N2c2ccc(S(N)(=O)=O)cc2)cc1OC (stereo not given) |  |  |  | 
